{
  "source": "patent US20210283198A1",
  "about": "“METHOD FOR TREATING AND/OR PREVENTING COCCIDIOSIS” (priority 2020, published 2021)",
  "tested_on": "Eimeria tenella oocyst",
  "assay": "In vitro sporulation of the coccidia oocyst in 2% K2Cr2O7",
  "assay_type": "cell-based",
  "settings": "100 ppm, 25° C., 10^4 oocysts/mL, mean ± SD (n = 3)",
  "experimental": "Intestinal samples from naturally infected broilers were obtained from poultry farms. Un-sporulated oocysts were obtained from the cecal contents of broilers at day 8 post-infection. Oocyst sporulation was conducted in an aqueous solution of 2% potassium dichromate (K2Cr2O7) with or without surfactin standard or the Bacillus licheniformis-fermented product-derived surfactin C-form for 72 h at 25° C. (10^4 oocysts/mL). Sporulated and non-sporulated oocysts were counted and the percentage of sporulation was estimated by counting the number of sporulated oocysts in a total of 100 oocysts by microscopic observation. Second-generation merozoites were collected from ceca at 110 h post-infection from chickens that had been inoculated with 1×10^5 sporulated oocysts per bird. The merozoites (10^4/mL) were treated with or without surfactin standard or the Bacillus licheniformis-fermented product-derived surfactin C-form for 1 h at 37° C. Three groups of merozoites were prepared, including: (1) a control group comprising 10^4/ml merozoites without surfactin; (2) an experimental group comprising 10^4/ml merozoites treated with 100 ppm surfactin standard; and (3) an experimental group comprising 10^4/ml merozoites treated with the 100 ppm Bacillus licheniformis-fermented product-derived surfactin C-form. After incubation, propidium iodide was added to each well and then stained at 37° C. for 30 min in the dark. The stained samples were examined under a confocal laser-scanning microscope (ZEISS LSM800, Jena, Germany). The percentage of death of merozoite was determined by counting the number of dead merozoite in a total of 100 merozoites. The Eimeria sporozoites from vaccine were treated with different surfacitn for 1 h at 37° C. (10^6 sporozoites/mL). The sporozoites were fixed with 2.5% glutaraldehyde in 50 mM potassium phosphate buffer (pH 6.8) overnight at 4° C., and then washed three times with 50 mM potassium phosphate buffer (pH 6.8). Dehydration was performed in different concentrations of ethanol (35-100%) for 10 mM each and the samples were dried in a critical point drier (CPD 030, Bal-Tec AG, Balzers, Liechtenstein). Specimens were coated under vacuum with gold:palladium (60:40) in a sputter coater (Bal-Tec AG, Balzers, Liechtenstein), and examined using a scanning electron microscope (JSM-6300, JEOL Ltd., Tokyo, JAPAN). […]",
  "note": "Marks after values point to notes of the source that are not given here. *1 amine or outer side, *2 acyl side, *3 side chain or, on linkers, in order; H or OH if unused. Where a SMILES comes first, the peptide text is derived from it. Bridges are numbered along the chain shown (N, C = ends). [ ]: non-standard residue; d: D form. X1 = CC(C)CCCCCCCCC[C@H](CC(=O)[*:1])O[*:2]",
  "data": [
    {"smiles": "CC(C)CCCCCCCCC[C@@H]1CC(=O)N[C@@H](CCC(=O)O)C(=O)N[C@@H](CC(C)C)C(=O)N[C@H](CC(C)C)C(=O)N[C@@H](C(C)C)C(=O)N[C@@H](CC(=O)O)C(=O)N[C@H](CC(C)C)C(=O)N[C@@H](CC(C)C)C(=O)O1", "note": "[surfactin standard, surfactin] (EL[dL]VD[dL]L; linker N-C via X1)", "values": [
      {"measurement": "Sporulation of the coccidia oocyst (%)", "setting": "12 h", "result": 0, "unit": "%"},
      {"measurement": "Sporulation of the coccidia oocyst (%)", "setting": "24 h", "result": 0, "unit": "%"},
      {"measurement": "Sporulation of the coccidia oocyst (%)", "setting": "48 h", "result": "0^b %"},
      {"measurement": "Sporulation of the coccidia oocyst (%)", "setting": "72 h", "result": "0^b %"}
    ]}
  ]
}
